Source: patent US20240295560A1, “PANCREATIC CANCER DIAGNOSIS ASSISTANCE METHOD AND PHARMACEUTICAL COMPOUND FOR TREATING PANCREATIC CANCER” (TOKYO METROPOLITAN GERIATRIC HOSPITAL AND INSTITUTE OF …, priority 2020, published 2024)

What was measured:
[1] = tested on: GM2 expression in MIA PaCa-2 cells; assay: GM2 expression and cell clusters in three-dimensional culture with AMP-dNM or MAP kinase inhibitor; type: cell-based
Description: MIA PaCa-2 cells were cultured on ultra-low attachment plates at a concentration of 1.0×10^4 cells/well (24-well plate: Corning) for 7 days. Cell clusters were obtained. Therefore, the number of GM2-positive cells increased in three-dimensional culture. In this example, the effects of AMP-dNM or MAP kinase inhibitor on GM2 expression were examined. Under the same conditions as in Example 5, MIA PaCa-2 cells were three-dimensionally cultured, and the expression of GM2 was measured by adding AMP-dNM (10 μM) which is an inhibitor of glycolipid synthesis, or PD0325901 (1 μM) which is a MAP kinase inhibitor.

[2] = tested on: MIA PaCa-2 cells (GM2-positive vs GM2-negative); assay: sensitivity of GM2-expressing cells to anticancer drugs, proliferation rate by ATP assay; type: cell-based; conditions: drug at 10 μM or 100 μM, incubated 3 days, ATP assay (FIG. 6)
Description: In this example, the sensitivity of GM2-expressing cells to anticancer drugs (gemcitabine, fluorouracil [5-FU], and Abraxane) were examined.
MIA PaCa-2 cells (3.0×10^3 cells/well) were seeded in 96-well plates. After 1 day, each anticancer drug was added thereto at a concentration of 10 μM or 100 μM. The cells were incubated for 3 days, and the proliferation rate of the cells was measured by ATP assay.

[3] = AMP-dNM 10 μM, three-dimensional culture of MIA PaCa-2 cells (FIG. 8(B))

OC[C@@H]1[C@@H](O)[C@H](O)[C@@H](O)CN1CCCCCOCC12CC3CC(CC(C3)C1)C2 [AMP-dNM, N-(5′-adamantane-1′-yl-methoxy)-pentyl-1-deoxynojirimycin]
GM2 expression ([1]; AMP-dNM 10 μM, three-dimensional culture of MIA PaCa-2 cells (FIG. 8(A))): decreased
microvilli in the cell clusters [1, 3]: hardly observed
vacuoles in the cell clusters [1, 3]: conspicuously observed

O=C(NOC[C@H](O)CO)c1ccc(F)c(F)c1Nc1ccc(I)cc1F [PD0325901]
GM2 expression ([1]; PD0325901 1 μM, three-dimensional culture of MIA PaCa-2 cells (FIG. 8(C))): decreased
size of cell clusters ([1]; PD0325901 1 μM, three-dimensional culture of MIA PaCa-2 cells (FIG. 8(D))): clearly reduced

O=c1[nH]cc(F)c(=O)[nH]1 [fluorouracil [5-FU], fluorouracil]
proliferation rate of GM2-positive cells compared with GM2-negative cells [2]: effective against GM2-positive cells

Nc1ccn([C@@H]2O[C@H](CO)[C@@H](O)C2(F)F)c(=O)n1 [gemcitabine]
proliferation rate of GM2-positive cells compared with GM2-negative cells [2]: effective against GM2-positive cells
